The values below come from publication PMC11519908, “Luminescent Ln(III)-Metallopeptide Sensors for Monitoring Pseudomonas aeruginosa Elastase B Activity in Complex Biological Media” (ACS Sensors, 2024).

The test system of data set [1] is supernatants from P. aeruginosa mutant strains deficient in LasB (LasB1, LasB2). Conditions: pH 8.
Data set [2] has as its system supernatants from the LasB-deficient P. aeruginosa mutants. Particulars: P1[Tb]: 0.5 mM probe, 50 mM CaCl2, HEPES buffer, 9 µL supernatant, RT, 1 h before injection.

As to EGLAEW [P1[Tb]], in data set [1], the “change of luminescence over time with LasB-deficient P. aeruginosa supernatants” value was “no changes in the luminescence”. Also, in data set [2], the “integrity of probe with LasB-deficient P. aeruginosa supernatants (HPLC-MS)” value was “remained intact”.
